Results published in patent US20250092056A1, “URACIL DERIVATIVES HAVING VIRUS REPLICATION INHIBITORY ACTIVITY AND PHARMACEUTICAL COMPOSITION COMPRISING THE SAME” (Shionogi & Co., Ltd., priority 2022, published 2025).
Where two headings read alike, the source gives them in different places.

Legend:
SARS-CoV-2 = assay: Cytopathic effect (CPE) suppression effect confirmation test using HEK293T/ACE2-TMPRSS2 cells; assay type: cell-based; details: Severe acute respiratory syndrome coronavirus 2, HEK-293T
[1] = biological target: Recombinant SARS-CoV-2 3CL Protease (Severe acute respiratory syndrome coronavirus 2 (2019-nCoV) (SARS-CoV-2), UniProt P0DTD1); assay: biochemical; assay type: biochemical; details: 50% SARS-CoV-2 3CL protease inhibitory concentration; read-out: IC50
[2] = 50% SARS-CoV-2 infected cell death inhibitory concentration, HEK293T/ACE2-TMPRSS2 cells, read-out: EC50
[3] = 72 h, HEK293T/ACE2-TMPRSS2 cells, CPE suppression, CellTiter-Glo 2.0 after 3 days culture, read-out: EC50 (50% SARS-CoV-2 infected cell death inhibitory concentration), class
[4] = 72 h, read-out: EC50 (50% SARS-CoV-2 infected cell death inhibitory concentration), class, HEK293T/ACE2-TMPRSS2 cells, CPE suppression, CellTiter-Glo 2.0 after 3 days culture
[5] = 72 h, read-out: EC50 (50% SARS-CoV-2 infected cell death inhibitory concentration), HEK293T/ACE2-TMPRSS2 cells, CPE suppression, CellTiter-Glo 2.0 after 3 days culture

SMILES | EC50 (SARS-CoV-2; [2]) [nM] | IC50 [1] [nM] | EC50 (SARS-CoV-2; [3]) [nM] | EC50 (SARS-CoV-2; [4]) [nM] | EC50 (SARS-CoV-2; [5]) [nM]
N#CCn1c(N2CCC(F)(F)CC2)c(-c2cc(F)c(F)c(F)c2)c(=O)n(-c2cncc(Cl)c2)c1=O [Compound I-326] | < 100 | < 10 | – | – | –
CC1(O)CC2(CN(c3c(-c4ccc(F)c(Cl)c4)c(=O)n(-c4cnc5cc(Cl)ccn45)c(=O)n3CC#N)C2)C1 [Compound I-138] | – | 10 to 100 | 100 to 1000 | – | –
N#CCn1c(N2CCC(O)(C(F)(F)F)CC2)c(-c2ccc(F)c(Cl)c2)c(=O)n(-c2cnc3cc(F)ccn23)c1=O [Compound I-150] | – | < 10 | – | < 100 | –
N#CCn1c(N2CC(OC(F)(F)F)C2)c(-c2ccc(F)c(Cl)c2)c(=O)n(-c2cncc(OCF)n2)c1=O [Compound I-408] | < 100 | < 10 | – | – | –
COCC1CN(c2c(-c3ccc(F)c(Cl)c3)c(=O)n(-c3cncc(C(F)F)n3)c(=O)n2CC#N)C1 [Compound I-389] | < 100 | < 10 | – | – | –
CC(C)(O)C1CN(c2c(-c3ccc(F)c(Cl)c3)c(=O)n(-c3cnc4cc(Cl)ccn34)c(=O)n2CC#N)C1 [Compound I-133] | – | 10 to 100 | < 100 | – | –
N#CCn1c(N2Cc3cn[nH]c3C2)c(Cc2cc(F)c(F)c(F)c2)c(=O)n(-c2cc[nH]c(=O)c2)c1=O [Compound I-053] | – | 32 | – | – | 2610
Cc1cncc(-n2c(=O)c(-c3ccc(F)c(Cl)c3)c(-c3cc4ccccc4s3)n(CC#N)c2=O)c1 [Compound I-020] | – | < 10 | – | < 100 | –
Cc1cncc(-n2c(=O)c(-c3ccc(F)c(Cl)c3)c(N3CC(O)(c4ncccn4)C3)n(CC#N)c2=O)n1 [Compound I-337] | < 100 | < 10 | – | – | –
N#CCn1c(N2CC3(CCOC3)C2)c(-c2ccc(F)c(Cl)c2)c(=O)n(-c2cncc(Cl)n2)c1=O [Compound I-191] | – | < 10 | – | < 100 | –
N#CCn1c(N2CC(F)(c3ncccn3)C2)c(-c2ccc(F)c(Cl)c2)c(=O)n(-c2cncc(Cl)c2)c1=O [Compound I-287] | < 100 | < 10 | – | – | –
N#CCn1c(C2CC(O)C2)c(-c2ccc(F)c(Cl)c2)c(=O)n(-c2cncc(Cl)c2)c1=O (centres unmarked) [Compound I-371] | < 100 | < 10 | – | – | –
Cc1cc(-c2c(-c3ccc(F)c(Cl)c3)c(=O)n(-c3cncc(Cl)c3)c(=O)n2CC#N)on1 [Compound I-314] | < 100 | < 10 | – | – | –
C[C@H](C#N)n1c(N2CC[C@@](O)(C(F)F)C2)c(-c2ccc(F)c(Cl)c2)c(=O)n(-c2cncc(Cl)c2)c1=O (single isomer, unassigned) [Compound I-423] | < 100 | < 10 | – | – | –
Cc1cncc(-n2c(=O)c(Cc3cc(F)c(F)c(F)c3)c(N3CCC4(CCC(O)C4)C3)n(CC#N)c2=O)c1 (racemic) [Compound I-110] | – | < 10 | – | < 100 | –
N#CCn1c(N2CC3(CCOC3)C2)c(Cc2cc(F)c(F)c(F)c2)c(=O)n(-c2cnc3ccccn23)c1=O [Compound I-037] | – | 10 to 100 | 100 to 1000 | – | –
N#CCn1c(N2CC(C(F)F)C2)c(-c2ccc(F)c(Cl)c2)c(=O)n(-c2cncc(Cl)c2)c1=O [Compound I-250] | – | 0.54 | – | – | 3.31
Cc1cncc(-n2c(=O)c(Cc3cc(F)c(F)c(F)c3)c(N3CC4(CCOCC4)C3)n(CC#N)c2=O)c1 [Compound I-093] | – | 10 to 100 | < 100 | – | –
CC(C)(F)Cc1c(-c2ccc(F)c(Cl)c2)c(=O)n(-c2cncc(Cl)c2)c(=O)n1CC#N [Compound I-307] | < 100 | < 10 | – | – | –
N#CCn1c(N2Cc3cn[nH]c3C2)c(Cc2cc(F)c(F)c(F)c2)c(=O)n(-c2cncc(Cl)c2)c1=O [Compound I-064] | – | < 10 | – | < 100 | –

SMILES | EC50 (SARS-CoV-2; [2]) [nM] | IC50 [1] [nM] | EC50 (SARS-CoV-2; [3]) [nM] | EC50 (SARS-CoV-2; [4]) [nM] | EC50 (SARS-CoV-2; [5]) [nM]
CC1(C)[C@@H]2CN(c3c(-c4cccc(Cl)c4)c(=O)n(-c4cncc(Cl)c4)c(=O)n3CC#N)C[C@@H]21 [Compound I-178] | – | < 10 | – | < 100 | –
Cc1cncc(-n2c(=O)c(-c3ccc(F)c(Cl)c3)c(-c3ccc(C(N)=O)cc3)n(CC#N)c2=O)c1 [Compound I-273] | < 100 | < 10 | – | – | –
CC(=O)Nc1cccc(-c2c(N3CCC(F)(F)CC3)n(CC#N)c(=O)n(-c3cncc(Cl)c3)c2=O)c1 [Compound I-263] | 1000 to 5000 | > 100 | – | – | –
C[C@](O)(CCc1c(-c2ccc(F)c(Cl)c2)c(=O)n(-c2cncc(C#N)c2)c(=O)n1CC#N)C(F)F (single isomer, unassigned) [Compound I-429] | < 100 | < 10 | – | – | –
Cc1ccc(-c2c(-c3ccc(F)c(Cl)c3)c(=O)n(-c3cncc(C)c3)c(=O)n2CC#N)cc1 [Compound I-270] | < 100 | < 10 | – | – | –
N#CCn1c(CCC2CC(F)(F)C2)c(-c2ccc(F)c(Cl)c2)c(=O)n(-c2cncc(Cl)c2)c1=O [Compound I-391] | < 100 | < 10 | – | – | –
CCCOc1cc(Cl)cc(-c2c(N3Cc4ccccc4C3)n(CC#N)c(=O)n(-c3cncc(C)c3)c2=O)c1 [Compound I-041] | – | < 10 | – | < 100 | –
N#CCn1c(N2CC(O)(c3ncccn3)C2)c(-c2ccc(F)c(C(F)F)c2)c(=O)n(-c2cncc(C#N)c2)c1=O [Compound I-439] | < 100 | < 10 | – | – | –
Cc1cncc(-n2c(=O)c(-c3ccc(F)c(Cl)c3)c(-c3ccc(S(N)(=O)=O)cc3)n(CC#N)c2=O)c1 [Compound I-275] | 100 to 1000 | < 10 | – | – | –
Cc1cc(-n2c(=O)c(-c3ccc(F)c(Cl)c3)c(N3CC4(CCOC4)C3)n(CC#N)c2=O)cnn1 [Compound I-188] | – | 10 to 100 | 100 to 1000 | – | –
CN1CCN(c2c(-c3ccc(F)c(Cl)c3)c(=O)n(-c3cncc(Cl)c3)c(=O)n2CC#N)C1=O [Compound I-244] | < 100 | 10 to 100 | – | – | –
N#CCn1c(N2CC(c3nccs3)C2)c(-c2ccc(F)c(Cl)c2)c(=O)n(-c2cncc(Cl)c2)c1=O [Compound I-079] | – | < 10 | – | < 100 | –
Cc1cc(-n2c(=O)c(-c3cc(Cl)cc(C(F)(F)F)c3)c(N3CC4(C3)CC(F)(F)C4)n(CC#N)c2=O)cc(=O)[nH]1 [Compound I-201] | – | < 10 | – | 100 to 1000 | –
CC(C)(F)CCc1c(-c2ccc(F)c(Cl)c2)c(=O)n(-c2cncc(Cl)c2)c(=O)n1CC#N [Compound I-357] | < 100 | < 10 | – | – | –
CC(C)(O)CCc1c(-c2ccc(F)c(Cl)c2)c(=O)n(-c2cncc(Cl)c2)c(=O)n1CC#N [Compound I-306] | < 100 | < 10 | – | – | –
N#CCn1c(N2CCC(F)(C#N)CC2)c(-c2ccc(F)c(Cl)c2)c(=O)n(-c2cncc(Cl)c2)c1=O [Compound I-305] | < 100 | < 10 | – | – | –
COC1CCN(c2c(Cc3cc(F)c(F)c(F)c3)c(=O)n(-c3cncc(C)c3)c(=O)n2CC#N)CC1 [Compound I-106] | – | < 10 | – | < 100 | –
N#CCn1c(N2CC(OC(F)F)C2)c(-c2ccc(F)c(Cl)c2)c(=O)n(-c2cncc(Cl)c2)c1=O [Compound I-298] | < 100 | < 10 | – | – | –
N#CCn1c(N2CCC(F)(F)C2)c(-c2ccc(F)c(Cl)c2)c(=O)n(-c2cncc(Cl)c2)c1=O [Compound I-148] | – | < 10 | – | < 100 | –
N#CCn1c(N2CC3(C2)CC(F)(F)C3)c(-c2ccc(F)c(Cl)c2)c(=O)n(-c2cncc(C#N)c2)c1=O [Compound I-247] | < 100 | < 10 | – | – | –
